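Method: 48-hour compound exposure of cells in 96-well plates, five concentrations, linear interpolation of endpoints. At the GI50, growth is halved. The concentration for full growth arrest is given as TGI.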
Legend:
Experiment in all cases: growth of human tumour cells (NCI), 48 h
786-0 renal = system: 786-0 renal
A498 renal = system: A498 renal
A549 NSCLC = system: A549 NSCLC
ACHN renal = system: ACHN renal
BT-549 breast = system: BT-549 breast
CAKI-1 renal = system: CAKI-1 renal
CCRF-CEM leukemia = system: CCRF-CEM leukemia
COLO 205 colon = system: COLO 205 colon
DU-145 prostate = system: DU-145 prostate
EKVX NSCLC = system: EKVX NSCLC
HCC-2998 colon = system: HCC-2998 colon
HCT-116 colon = system: HCT-116 colon
HCT-15 colon = system: HCT-15 colon
HL-60(TB) leukemia = system: HL-60(TB) leukemia
HOP-62 NSCLC = system: HOP-62 NSCLC
HOP-92 NSCLC = system: HOP-92 NSCLC
HS 578T breast = system: HS 578T breast
HT29 colon = system: HT29 colon
IGROV1 ovarian = system: IGROV1 ovarian
K-562 leukemia = system: K-562 leukemia
KM12 colon = system: KM12 colon
LOX IMVI melanoma = system: LOX IMVI melanoma
M14 melanoma = system: M14 melanoma
MCF7 breast = system: MCF7 breast
MDA-MB-231 breast = system: MDA-MB-231 breast
MDA-MB-435 = system: MDA-MB-435
MOLT-4 leukemia = system: MOLT-4 leukemia
NCI-H226 lung = system: NCI-H226 lung
NCI-H23 lung = system: NCI-H23 lung
NCI-H460 lung = system: NCI-H460 lung
NCI-H522 lung = system: NCI-H522 lung
NCI/ADR-RES ovarian = system: NCI/ADR-RES ovarian
OVCAR-3 ovarian = system: OVCAR-3 ovarian
OVCAR-4 ovarian = system: OVCAR-4 ovarian
OVCAR-5 ovarian = system: OVCAR-5 ovarian
OVCAR-8 ovarian = system: OVCAR-8 ovarian
PC-3 prostate = system: PC-3 prostate
RPMI-8226 leukemia = system: RPMI-8226 leukemia
RXF 393 renal = system: RXF 393 renal
SF-268 CNS = system: SF-268 CNS
SF-295 CNS = system: SF-295 CNS
SF-539 CNS = system: SF-539 CNS
SK-MEL-2 melanoma = system: SK-MEL-2 melanoma
SK-MEL-28 melanoma = system: SK-MEL-28 melanoma
SK-MEL-5 melanoma = system: SK-MEL-5 melanoma
SK-OV-3 ovarian = system: SK-OV-3 ovarian
SN12C renal = system: SN12C renal
SNB-19 CNS = system: SNB-19 CNS
SNB-75 CNS = system: SNB-75 CNS
SR leukemia = system: SR leukemia
SW-620 colon = system: SW-620 colon
T-47D breast = system: T-47D breast
TK-10 renal = system: TK-10 renal
U251 CNS = system: U251 CNS
UACC-257 melanoma = system: UACC-257 melanoma
UACC-62 melanoma = system: UACC-62 melanoma
UO-31 renal = system: UO-31 renal

CCN(CC)c1ccc(C2=NN(C(C)=O)C(c3cc(OC)c(OC)c(OC)c3)C2)cc1 (centres undefined)
GI50 (786-0 renal): 491 nM
TGI (786-0 renal): 13300 nM
GI50 (A498 renal): 344 nM
TGI (A498 renal): 4130 nM
GI50 (A549 NSCLC): 890 nM
TGI (A549 NSCLC): 22500 nM
GI50 (ACHN renal): 563 nM
TGI (ACHN renal): 23000 nM
GI50 (BT-549 breast): 667 nM
TGI (BT-549 breast): 7900 nM
GI50 (CAKI-1 renal): 134 nM
TGI (CAKI-1 renal): 21000 nM
GI50 (CCRF-CEM leukemia): 304 nM
TGI (CCRF-CEM leukemia): 1420 nM
GI50 (COLO 205 colon): 307 nM
TGI (COLO 205 colon): 1160 nM
GI50 (DU-145 prostate): 399 nM
TGI (DU-145 prostate): 2280 nM
GI50 (EKVX NSCLC): 600 nM
TGI (EKVX NSCLC): 11000 nM
GI50 (HCC-2998 colon): 1050 nM
TGI (HCC-2998 colon): 8040 nM
GI50 (HCT-116 colon): 349 nM
TGI (HCT-116 colon): 13000 nM
GI50 (HCT-15 colon): 441 nM
TGI (HCT-15 colon): 12100 nM
GI50 (HL-60(TB) leukemia): 209 nM
TGI (HL-60(TB) leukemia): 541 nM
GI50 (HOP-62 NSCLC): 3960 nM
TGI (HOP-62 NSCLC): 24200 nM
GI50 (HOP-92 NSCLC): 1820 nM
TGI (HOP-92 NSCLC): 20300 nM
GI50 (HS 578T breast): 348 nM
TGI (HS 578T breast): 26600 nM
GI50 (HT29 colon): 354 nM
TGI (HT29 colon): 1680 nM
GI50 (IGROV1 ovarian): 769 nM
TGI (IGROV1 ovarian): 33600 nM
GI50 (K-562 leukemia): 689 nM
TGI (K-562 leukemia): > 100000 nM
GI50 (KM12 colon): 349 nM
TGI (KM12 colon): 12100 nM
GI50 (LOX IMVI melanoma): 568 nM
TGI (LOX IMVI melanoma): 16000 nM
GI50 (M14 melanoma): 418 nM
TGI (M14 melanoma): 6070 nM
GI50 (MCF7 breast): 317 nM
TGI (MCF7 breast): 11400 nM
GI50 (MDA-MB-231 breast): 1240 nM
TGI (MDA-MB-231 breast): 6900 nM
GI50 (MDA-MB-435): 166 nM
TGI (MDA-MB-435): 363 nM
GI50 (MOLT-4 leukemia): 341 nM
TGI (MOLT-4 leukemia): 3570 nM
GI50 (NCI-H226 lung): 1740 nM
TGI (NCI-H226 lung): 11800 nM
GI50 (NCI-H23 lung): 870 nM
TGI (NCI-H23 lung): 17400 nM
GI50 (NCI-H460 lung): 371 nM
TGI (NCI-H460 lung): 4710 nM
GI50 (NCI-H522 lung): 307 nM
TGI (NCI-H522 lung): 2840 nM
GI50 (NCI/ADR-RES ovarian): 247 nM
TGI (NCI/ADR-RES ovarian): 810 nM
GI50 (OVCAR-3 ovarian): 360 nM
TGI (OVCAR-3 ovarian): 11000 nM
GI50 (OVCAR-4 ovarian): 583 nM
TGI (OVCAR-4 ovarian): 29200 nM
GI50 (OVCAR-5 ovarian): 1450 nM
TGI (OVCAR-5 ovarian): 15300 nM
GI50 (OVCAR-8 ovarian): 795 nM
TGI (OVCAR-8 ovarian): 11900 nM
GI50 (PC-3 prostate): 339 nM
TGI (PC-3 prostate): 12200 nM
GI50 (RPMI-8226 leukemia): 180 nM
TGI (RPMI-8226 leukemia): 579 nM
GI50 (RXF 393 renal): 380 nM
TGI (RXF 393 renal): 2430 nM
GI50 (SF-268 CNS): 867 nM
TGI (SF-268 CNS): 20900 nM
GI50 (SF-295 CNS): 258 nM
TGI (SF-295 CNS): 1460 nM
GI50 (SF-539 CNS): 283 nM
TGI (SF-539 CNS): 1160 nM
GI50 (SK-MEL-2 melanoma): 2370 nM
TGI (SK-MEL-2 melanoma): 26100 nM
GI50 (SK-MEL-28 melanoma): 819 nM
TGI (SK-MEL-28 melanoma): 19100 nM
GI50 (SK-MEL-5 melanoma): 378 nM
TGI (SK-MEL-5 melanoma): 5050 nM
GI50 (SK-OV-3 ovarian): 410 nM
TGI (SK-OV-3 ovarian): 10600 nM
GI50 (SN12C renal): 1150 nM
TGI (SN12C renal): 16200 nM
GI50 (SNB-19 CNS): 476 nM
TGI (SNB-19 CNS): 13300 nM
GI50 (SNB-75 CNS): 233 nM
TGI (SNB-75 CNS): 3590 nM
GI50 (SR leukemia): 70.8 nM
TGI (SR leukemia): 685 nM
GI50 (SW-620 colon): 368 nM
TGI (SW-620 colon): 14400 nM
GI50 (T-47D breast): 511 nM
TGI (T-47D breast): 22600 nM
GI50 (TK-10 renal): 549 nM
TGI (TK-10 renal): 17000 nM
GI50 (U251 CNS): 406 nM
TGI (U251 CNS): 11500 nM
GI50 (UACC-257 melanoma): 16000 nM
TGI (UACC-257 melanoma): 39800 nM
GI50 (UACC-62 melanoma): 308 nM
TGI (UACC-62 melanoma): 13600 nM
GI50 (UO-31 renal): 1130 nM
TGI (UO-31 renal): 21000 nM

— PubChem BioAssay (NCI)
